pEC50: −log10 of the molar value. Starred links: 1 amine or outer side, 2 acyl side, 3 side chain; linkers in the order of their positions; H or OH if unused. Non-standard residues stand in square brackets, D forms with d. Residues, ends and D or L forms follow the SMILES beside them. *: point of attachment. C20 diacid = O=C(O)CCCCCCCCCCCCCCCCCCC(=O)*; C18 diacid = O=C(O)CCCCCCCCCCCCCCCCC(=O)*; γGlu = O=C(O)[C@H](CCC(=O)[*:2])N[*:1]; βAsp = O=C(O)[C@H](CC(=O)[*:2])N[*:1]; Hyp = O=C(O)[C@@H]1C[C@@H](O)CN1; AEEA = NCCOCCOCC(=O)O; Inp = O=C(O)C1CCNCC1
Target: T1, human amylin receptors (Homo sapiens, UniProt O60896+P30988)
T1 construct: host or cells: CHO-K1/Ga15/AMY3 cells, further stably transfected with a CRE-luciferase plasmid
T1 sequence (P30988 25-474): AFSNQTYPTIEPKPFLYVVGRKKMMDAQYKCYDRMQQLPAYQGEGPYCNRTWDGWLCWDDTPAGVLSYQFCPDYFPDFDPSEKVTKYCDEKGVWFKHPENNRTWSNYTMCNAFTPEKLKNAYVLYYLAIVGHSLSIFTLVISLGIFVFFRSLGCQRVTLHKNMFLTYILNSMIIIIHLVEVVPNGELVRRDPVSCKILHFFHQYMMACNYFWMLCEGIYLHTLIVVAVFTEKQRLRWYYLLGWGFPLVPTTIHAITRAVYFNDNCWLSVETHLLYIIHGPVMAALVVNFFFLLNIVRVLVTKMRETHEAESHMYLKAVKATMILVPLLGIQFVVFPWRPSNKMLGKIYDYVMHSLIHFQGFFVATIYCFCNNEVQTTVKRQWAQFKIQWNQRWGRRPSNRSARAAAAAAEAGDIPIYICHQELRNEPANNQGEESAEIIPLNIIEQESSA
T1 sequence (O60896 24-148 partner): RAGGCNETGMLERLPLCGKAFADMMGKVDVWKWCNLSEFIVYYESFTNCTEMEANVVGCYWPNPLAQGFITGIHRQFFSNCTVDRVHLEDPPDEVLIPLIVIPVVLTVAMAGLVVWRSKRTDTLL
Experiment: Luciferase assay in stably transfected amylin receptor/CRE-luc CHO cell line
Assay type: cell-based
Details: for Relative activity: EC50 ratio of Cagrilintide to the compound, Cagrilintide 100%; for pEC50: amylin receptor/CRE-luc CHO cells, 24 hours incubation, luminescence

| Structure (SMILES) | Relative activity | pEC50 |
| --- | --- | --- |
| CC[C@H](C)[C@H](NC(=O)[C@@H]1CCCN1C(=O)[C@H](CCCCN)NC(=O)[C@H](CC(C)C)NC(=O)[C@H](CC(N)=O)NC(=O)[C@H](CC(N)=O)NC(=O)[C@H](CO)NC(=O)[C@H](CO)NC(=O)[C@H](Cc1c[nH]cn1)NC(=O)[C@H](CCCNC(=N)N)NC(=O)[C@H](CC(C)C)NC(=O)[C@H](Cc1ccccc1)NC(=O)[C@H](CC(=O)O)NC(=O)[C@H](C)NC(=O)[C@H](CC(C)C)NC(=O)[C@H](CCCNC(=N)N)NC(=O)[C@H](CCC(N)=O)NC(=O)[C@@H](NC(=O)[C@H](C)NC(=O)[C@H](C)NC(=O)[C@@H](NC(=O)[C@H](CO)NC(=O)[C@H](CC(C)C)NC(=O)[C@H](CCC(N)=O)NC(=O)[C@H](CO)NC(=O)[C@H](C)NC(=O)COCCOCCNC(=O)COCCOCCNC(=O)C[C@H](NC(=O)CCCCCCCCCCCCCCCCCCC(=O)O)C(=O)O)[C@@H](C)O)[C@@H](C)O)C(=O)N[C@@H](CC(C)C)C(=O)N1CCC[C@H]1C(=O)N1CCC[C@H]1C(=O)N[C@H](C(=O)N[C@@H](CC(N)=O)C(=O)N[C@H](C(=O)NCC(=O)N[C@@H](CO)C(=O)N[C@@H](CC(N)=O)C(=O)N[C@H](C(=O)N1C[C@H](O)C[C@H]1C(N)=O)[C@@H](C)O)C(C)C)[C@@H](C)O [M33] ({C20 diacid-βAsp-AEEA-AEEA}-ASQLSTAATQRLADFLRHSSNNLKPILPPTNVGSNT[Hyp]-NH2) | 37% | 9.84 |
| CC[C@H](C)[C@H](NC(=O)[C@H](CC(=O)O)NC(=O)[C@H](CCCNC(=N)N)NC(=O)[C@H](CC(=O)O)NC(=O)[C@H](CCCNC(=N)N)NC(=O)[C@H](CC(=O)O)NC(=O)[C@@H](NC(=O)[C@H](Cc1ccccc1)NC(=O)[C@H](Cc1c[nH]cn1)NC(=O)[C@H](CCCNC(=N)N)NC(=O)[C@H](CC(C)C)NC(=O)[C@H](Cc1ccccc1)NC(=O)[C@H](CC(=O)O)NC(=O)[C@H](C)NC(=O)[C@H](CC(C)C)NC(=O)[C@H](CCCNC(=N)N)NC(=O)[C@H](CCC(N)=O)NC(=O)[C@@H](NC(=O)[C@H](C)NC(=O)[C@H](C)NC(=O)[C@@H](NC(=O)[C@H](CO)NC(=O)[C@H](CC(C)C)NC(=O)[C@H](CCC(N)=O)NC(=O)[C@H](CO)NC(=O)[C@H](C)NC(=O)COCCOCCNC(=O)COCCOCCNC(=O)COCCOCCNC(=O)COCCOCCNC(=O)CC[C@H](NC(=O)CCCCCCCCCCCCCCCCCCC(=O)O)C(=O)O)[C@@H](C)O)[C@@H](C)O)[C@@H](C)O)C(=O)N[C@@H](CC(C)C)C(=O)N1CCC[C@H]1C(=O)N1CCC[C@H]1C(=O)N[C@H](C(=O)N[C@@H](CC(N)=O)C(=O)N[C@H](C(=O)NCC(=O)N[C@@H](CO)C(=O)N[C@@H](CC(N)=O)C(=O)N[C@H](C(=O)N1CCC[C@H]1C(N)=O)[C@@H](C)O)C(C)C)[C@@H](C)O [M24] ({C20 diacid-γGlu-AEEA-AEEA-AEEA-AEEA}-ASQLSTAATQRLADFLRHFTDRDRDILPPTNVGSNTP-NH2) | 47% | 10.18 |
| CC[C@H](C)[C@H](NC(=O)[C@@H]1CCCN1C(=O)[C@H](CCCCN)NC(=O)[C@H](CC(C)C)NC(=O)[C@H](CC(N)=O)NC(=O)[C@H](CC(N)=O)NC(=O)[C@H](CO)NC(=O)[C@H](CO)NC(=O)[C@H](Cc1c[nH]cn1)NC(=O)[C@H](CCCNC(=N)N)NC(=O)[C@H](CC(C)C)NC(=O)[C@H](Cc1ccccc1)NC(=O)[C@H](CC(=O)O)NC(=O)[C@H](C)NC(=O)[C@H](CC(C)C)NC(=O)[C@H](CCCNC(=N)N)NC(=O)[C@H](CCC(N)=O)NC(=O)[C@@H](NC(=O)[C@H](C)NC(=O)[C@H](C)NC(=O)[C@@H](NC(=O)[C@H](CO)NC(=O)[C@H](CC(C)C)NC(=O)[C@H](CCC(N)=O)NC(=O)[C@H](CO)NC(=O)[C@H](C)NC(=O)CC[C@H](NC(=O)CCCCCCCCCCCCCCCCC(=O)O)C(=O)O)[C@@H](C)O)[C@@H](C)O)C(=O)N[C@@H](CC(C)C)C(=O)N1CCC[C@H]1C(=O)N1CCC[C@H]1C(=O)N[C@H](C(=O)N[C@@H](CC(N)=O)C(=O)N[C@H](C(=O)NCC(=O)N[C@@H](CO)C(=O)N[C@@H](CC(N)=O)C(=O)N[C@H](C(=O)N1C[C@H](O)C[C@H]1C(N)=O)[C@@H](C)O)C(C)C)[C@@H](C)O [M37] ({C18 diacid-γGlu}-ASQLSTAATQRLADFLRHSSNNLKPILPPTNVGSNT[Hyp]-NH2) | 184% | 10.52 |

Continued by rising pEC50, values first:

| Relative activity | pEC50 | Structure (SMILES) |
| --- | --- | --- |
| 32% | 10.09 | CC[C@H](C)[C@H](NC(=O)[C@H](CC(=O)O)NC(=O)[C@H](CCCNC(=N)N)NC(=O)[C@H](CC(=O)O)NC(=O)[C@H](CCCNC(=N)N)NC(=O)[C@H](CC(=O)O)NC(=O)[C@@H](NC(=O)[C@H](Cc1ccccc1)NC(=O)[C@H](Cc1c[nH]cn1)NC(=O)[C@H](CCCNC(=N)N)NC(=O)[C@H](CC(C)C)NC(=O)[C@H](Cc1ccccc1)NC(=O)[C@H](CC(=O)O)NC(=O)[C@H](C)NC(=O)[C@H](CC(C)C)NC(=O)[C@H](CCCNC(=N)N)NC(=O)CNC(=O)[C@H](CC(C)C)NC(=O)[C@H](C)NC(=O)[C@H](C)NC(=O)[C@@H](NC(=O)[C@H](CO)NC(=O)[C@H](CC(C)C)NC(=O)[C@H](CCC(=O)O)NC(=O)[C@H](CO)NC(=O)[C@H](C)NC(=O)CC[C@H](NC(=O)CCCCCCCCCCCCCCCCCCC(=O)O)C(=O)O)[C@@H](C)O)[C@@H](C)O)C(=O)N[C@@H](CC(C)C)C(=O)N1CCC[C@H]1C(=O)N1CCC[C@H]1C(=O)N[C@H](C(=O)N[C@@H](CC(N)=O)C(=O)N[C@H](C(=O)NCC(=O)N[C@@H](CO)C(=O)N[C@@H](CC(N)=O)C(=O)N[C@H](C(=O)N1CCC[C@H]1C(N)=O)[C@@H](C)O)C(C)C)[C@@H](C)O [M3] ({C20 diacid-γGlu}-ASELSTAALGRLADFLRHFTDRDRDILPPTNVGSNTP-NH2) |
|  | 10.23 | CC[C@H](C)[C@H](NC(=O)[C@@H]1CCCN1C(=O)[C@H](CCCCN)NC(=O)[C@H](CC(C)C)NC(=O)[C@H](CC(N)=O)NC(=O)[C@H](CC(N)=O)NC(=O)[C@H](CO)NC(=O)[C@H](CO)NC(=O)[C@H](Cc1c[nH]cn1)NC(=O)[C@H](CCCNC(=N)N)NC(=O)[C@H](CC(C)C)NC(=O)[C@H](Cc1ccccc1)NC(=O)[C@H](CC(=O)O)NC(=O)[C@H](C)NC(=O)[C@H](CC(C)C)NC(=O)[C@H](CCCNC(=N)N)NC(=O)[C@H](CCC(N)=O)NC(=O)[C@@H](NC(=O)[C@H](C)NC(=O)[C@H](C)NC(=O)[C@@H](NC(=O)[C@H](CO)NC(=O)[C@H](CC(C)C)NC(=O)[C@H](CCC(N)=O)NC(=O)[C@H](CO)NC(=O)[C@H](C)NC(=O)COCCOCCNC(=O)COCCOCCNC(=O)C1CCN(C(=O)CCCCCCCCCCCCCCCCCCC(=O)O)CC1)[C@@H](C)O)[C@@H](C)O)C(=O)N[C@@H](CC(C)C)C(=O)N1CCC[C@H]1C(=O)N1CCC[C@H]1C(=O)N[C@H](C(=O)N[C@@H](CC(N)=O)C(=O)N[C@H](C(=O)NCC(=O)N[C@@H](CO)C(=O)N[C@@H](CC(N)=O)C(=O)N[C@H](C(=O)N1C[C@H](O)C[C@H]1C(N)=O)[C@@H](C)O)C(C)C)[C@@H](C)O [M36] ({C20 diacid-Inp-AEEA-AEEA}-ASQLSTAATQRLADFLRHSSNNLKPILPPTNVGSNT[Hyp]-NH2) |
|  | 10.41 | CC[C@H](C)[C@H](NC(=O)[C@@H]1CCCN1C(=O)[C@H](CCCCN)NC(=O)[C@H](CC(C)C)NC(=O)[C@H](CC(N)=O)NC(=O)[C@H](CC(N)=O)NC(=O)[C@H](CO)NC(=O)[C@H](CO)NC(=O)[C@H](Cc1c[nH]cn1)NC(=O)[C@H](CCCNC(=N)N)NC(=O)[C@H](CC(C)C)NC(=O)[C@H](Cc1ccccc1)NC(=O)[C@H](CC(=O)O)NC(=O)[C@H](C)NC(=O)[C@H](CC(C)C)NC(=O)[C@H](CCCNC(=N)N)NC(=O)[C@H](CCC(N)=O)NC(=O)[C@@H](NC(=O)[C@H](C)NC(=O)[C@H](C)NC(=O)[C@@H](NC(=O)[C@H](CO)NC(=O)[C@H](CC(C)C)NC(=O)[C@H](CCC(N)=O)NC(=O)[C@H](CO)NC(=O)[C@H](C)NC(=O)C1CCN(C(=O)CCCCCCCCCCCCCCCCCCC(=O)O)CC1)[C@@H](C)O)[C@@H](C)O)C(=O)N[C@@H](CC(C)C)C(=O)N1CCC[C@H]1C(=O)N1CCC[C@H]1C(=O)N[C@H](C(=O)N[C@@H](CC(N)=O)C(=O)N[C@H](C(=O)NCC(=O)N[C@@H](CO)C(=O)N[C@@H](CC(N)=O)C(=O)N[C@H](C(=O)N1C[C@H](O)C[C@H]1C(N)=O)[C@@H](C)O)C(C)C)[C@@H](C)O [M30] ({C20 diacid-Inp}-ASQLSTAATQRLADFLRHSSNNLKPILPPTNVGSNT[Hyp]-NH2) |
| 81% | 10.52 | CC[C@H](C)[C@H](NC(=O)[C@H](CC(=O)O)NC(=O)[C@H](CCCNC(=N)N)NC(=O)[C@H](CC(=O)O)NC(=O)[C@H](CCCNC(=N)N)NC(=O)[C@H](CC(=O)O)NC(=O)[C@@H](NC(=O)[C@H](Cc1ccccc1)NC(=O)[C@H](Cc1c[nH]cn1)NC(=O)[C@H](CCCNC(=N)N)NC(=O)[C@H](CC(C)C)NC(=O)[C@H](Cc1ccccc1)NC(=O)[C@H](CC(=O)O)NC(=O)[C@H](C)NC(=O)[C@H](CC(C)C)NC(=O)[C@H](CCCNC(=N)N)NC(=O)[C@H](CCC(N)=O)NC(=O)[C@@H](NC(=O)[C@H](C)NC(=O)[C@H](C)NC(=O)[C@@H](NC(=O)[C@H](CO)NC(=O)[C@H](CC(C)C)NC(=O)[C@H](CCC(N)=O)NC(=O)[C@H](CO)NC(=O)[C@H](C)NC(=O)C1CCN(C(=O)CCCCCCCCCCCCCCCCCCC(=O)O)CC1)[C@@H](C)O)[C@@H](C)O)[C@@H](C)O)C(=O)N[C@@H](CC(C)C)C(=O)N1CCC[C@H]1C(=O)N1CCC[C@H]1C(=O)N[C@H](C(=O)N[C@@H](CC(N)=O)C(=O)N[C@H](C(=O)NCC(=O)N[C@@H](CO)C(=O)N[C@@H](CC(N)=O)C(=O)N[C@H](C(=O)N1CCC[C@H]1C(N)=O)[C@@H](C)O)C(C)C)[C@@H](C)O [M15] ({C20 diacid-Inp}-ASQLSTAATQRLADFLRHFTDRDRDILPPTNVGSNTP-NH2) |
